Experimental data as given in patent US20240343717A1, “MICROBIOCIDAL PYRAZOLE DERIVATIVES” (SYNGENTA CROP PROTECTION AG, priority 2021, published 2024).

Assays:
[1] = tested on: Blumeria graminis f. sp. tritici (Erysiphe graminis f. sp. tritici); assay: Blumeria graminis f. sp. tritici / wheat / leaf disc preventative (powdery mildew on wheat); format: in vivo; settings: foliar, wheat leaf segments, inoculated 1 day after application
Description: Example B4: Blumeria graminis f. Sp. Tritici (Erysiphe graminis f. Sp. Tritici)/Wheat/Leaf Disc Preventative (Powdery Mildew on Wheat) Wheat leaf segments cv. Kanzler are placed on agar in a multiwell plate (24-well format) and sprayed with the formulated test compound diluted in water. The leaf disks are inoculated by shaking powdery mildew infected plants above the test plates 1 day after application. The inoculated leaf disks are incubated at 20° C. and 60% rh under a light regime of 24 h darkness followed by 12 h light/12 h darkness in a climate chamber and the activity of a compound is assessed as percent disease control compared to untreated when an appropriate level of disease damage appears on untreated check leaf segments (6-8 days after application).

Alternaria solani = Alternaria solani / tomato / leaf disc (early blight); format: in vivo; settings: foliar, tomato leaf disks, sprayed 2 days before inoculation, compared to untreated control
Description: Example B1: Alternaria solani/Tomato/Leaf Disc (Early Blight) Tomato leaf disks cv. Baby are placed on agar in multiwell plates (24-well format) and sprayed with the formulated test compound diluted in water. The leaf disks are inoculated with a spore suspension of the fungus 2 days after application. The inoculated leaf disks are incubated at 23° C./21° C.

Pyrenophora teres = Pyrenophora teres / barley / leaf disc preventative (net blotch); format: in vivo; settings: foliar, barley leaf segments, inoculated 2 days after application
Description: Example B14: Pyrenophora teres/Barley/Leaf Disc Preventative (Net Blotch) Barley leaf segments cv. Hasso are placed on agar in a multiwell plate (24-well format) and sprayed with the formulated test compound diluted in water. The leaf segments are inoculated with a spore suspension of the fungus 2 days after application. The inoculated leaf segments are incubated at 20° C. and 65% rh under a light regime of 12 h light/12 h darkness in a climate cabinet and the activity of a compound is assessed as disease control compared to untreated when an appropriate level of disease damage appears in untreated check leaf segments (5-7 days after application).

[2] = tested on: Mycosphaerella graminicola (Septoria tritici); assay: Mycosphaerella graminicola (Septoria tritici) / liquid culture (Septoria blotch); format: cell-based; settings: Zymoseptoria tritici, growth inhibition photometrically 4-5 days after application, read-out: control of Mycosphaerella graminicola
Description: Example B16: Mycosphaerella graminicola (Septoria tritici)/Liquid Culture (Septoria Blotch) Conidia of the fungus from cryogenic storage are directly mixed into nutrient broth (PDB potato dextrose broth). After placing a (DMSO) solution of test compound into a microtiter plate (96-well format), the nutrient broth containing the fungal spores is added. The test plates are incubated at 24° C. and the inhibition of growth is determined photometrically 4-5 days after application.

[3] = tested on: Botryotinia fuckeliana (Botrytis cinerea); assay: Botryotinia fuckeliana (Botrytis cinerea) / liquid culture (gray mould); format: cell-based; settings: growth inhibition photometrically 3-4 days after application, read-out: control of Botryotinia fuckeliana
Description: Example B2: Botryotinia fuckeliana (Botrytis cinerea)/Liquid Culture (Gray Mould) Conidia of the fungus from cryogenic storage are directly mixed into nutrient broth (Vogels broth). After placing a (DMSO) solution of test compound into a microtiter plate (96-well format), the nutrient broth containing the fungal spores is added. The test plates are incubated at 24° C. and the inhibition of growth is determined photometrically 3-4 days after application.

[4] = tested on: Glomerella lagenarium (Colletotrichum lagenarium); assay: Glomerella lagenarium (Colletotrichum lagenarium) / liquid culture (anthracnose); format: cell-based; settings: Colletotrichum orbiculare, growth inhibition photometrically 3-4 days after application, read-out: control of Glomerella lagenarium
Description: Example B3: Glomerella lagenarium (Colletotrichum lagenarium)/Liquid Culture (Anthracnose) Conidia of the fungus from cryogenic storage are directly mixed into nutrient broth (PDB potato dextrose broth). After placing a (DMSO) solution of test compound into a microtiter plate (96-well format), the nutrient broth containing the fungal spores is added. The test plates are incubated at 24° C. and the inhibition of growth is measured photometrically 3-4 days after application.

[5] = tested on: Monographella nivalis (Microdochium nivale); assay: Monographella nivalis (Microdochium nivale) / liquid culture (foot rot cereals); format: cell-based; settings: growth inhibition photometrically 4-5 days after application, read-out: control of Monographella nivalis
Description: Example B9: Monographella nivalis (Microdochium nivale)/Liquid Culture (Foot Rot Cereals) Conidia of the fungus from cryogenic storage are directly mixed into nutrient broth (PDB potato dextrose broth). After placing a (DMSO) solution of test compound into a microtiter plate (96-well format), the nutrient broth containing the fungal spores is added. The test plates are incubated at 24° C. and the inhibition of growth is determined photometrically 4-5 days after application.

[6] = tested on: Phaeosphaeria nodorum (Septoria nodorum); assay: Phaeosphaeria nodorum (Septoria nodorum) / wheat / leaf disc preventative (glume blotch); format: in vivo; settings: Parastagonospora nodorum, foliar, wheat leaf segments, inoculated 2 days after application
Description: Example B8: Phaeosphaeria nodorum (Septoria nodorum)/Wheat/Leaf Disc Preventative (Glume Blotch) Wheat leaf segments cv. Kanzler are placed on agar in a multiwell plate (24-well format) and sprayed with the formulated test compound diluted in water. The leaf disks are inoculated with a spore suspension of the fungus 2 days after application. The inoculated test leaf disks are incubated at 20° C. and 75% rh under a light regime of 12 h light/12 h darkness in a climate cabinet and the activity of a compound is assessed as percent disease control compared to untreated when an appropriate level of disease damage appears in untreated check leaf disks (5-7 days after application).

[7] = tested on: Mycosphaerella arachidis (Cercospora arachidicola); assay: Mycosphaerella arachidis (Cercospora arachidicola) / liquid culture (early leaf spot); format: cell-based; settings: growth inhibition photometrically 4-5 days after application, read-out: control of Mycosphaerella arachidis
Description: Example B10: Mycosphaerella arachidis (Cercospora arachidicola)/Liquid Culture (Early Leaf Spot) Conidia of the fungus from cryogenic storage are directly mixed into nutrient broth (PDB potato dextrose broth). After placing a (DMSO) solution of test compound into a microtiter plate (96-well format), the nutrient broth containing the fungal spores is added. The test plates are incubated at 24° C. and the inhibition of growth is determined photometrically 4-5 days after application.

Fusarium culmorum = assay: microbe, parasite or virus in culture; format: cell-based; settings: read-out: control of Fusarium culmorum

CC(=O)Nc1ccc(C(C)(CNC(=O)c2cc(-c3ccc(F)cc3F)on2)c2cnn(C)c2)nc1 (stereo not drawn) [Compound P-59, N-[2-(5-acetamido-2-pyridyl)-2-(1-methylpyrazol-4-yl)propyl]-5-(2,4-difluorophenyl) isoxazole-3-carboxamide]
≥ 80%: pest or weed control at 200 ppm [1]

Cn1cc(C(C)(CNC(=O)c2cc(-c3ccc(F)cc3F)on2)c2ccccn2)cn1 (stereo not drawn) [Compound P-11, 5-(2,4-difluorophenyl)-N-[2-(1-methylpyrazol-4-yl)-2-(2-pyridyl)propyl] isoxazole-3-carboxamide]
≥ 80%: pest or weed control at 200 ppm (Alternaria solani) | pest or weed control at 200 ppm (Pyrenophora teres) | inhibition of growth at 20 ppm [2] | inhibition of growth at 20 ppm [3] | inhibition of growth at 20 ppm [4] | inhibition of growth at 20 ppm [5] | pest or weed control at 200 ppm [1] | pest or weed control at 200 ppm [6]

Cn1cc(C(C)(CNC(=O)c2cc(-c3ccc(F)cc3F)on2)c2ccc(C#N)cn2)cn1 (stereo not drawn) [Compound P-75, N-[2-(5-cyano-2-pyridyl)-2-(1-methylpyrazol-4-yl)propyl]-5-(2,4-difluorophenyl) isoxazole-3-carboxamide]
≥ 80%: pest or weed control at 200 ppm (Alternaria solani) | pest or weed control at 200 ppm (Pyrenophora teres) | inhibition of growth at 20 ppm [2] | inhibition of growth at 20 ppm [5]

CC(=O)c1cccc(C(C)(CNC(=O)c2cc(-c3ccc(F)cc3F)on2)c2cnn(C)c2)n1 (stereo not drawn) [Compound P-48, N-[2-(6-acetyl-2-pyridyl)-2-(1-methylpyrazol-4-yl)propyl]-5-(2,4-difluorophenyl) isoxazole-3-carboxamide]
≥ 80%: pest or weed control at 200 ppm (Alternaria solani) | pest or weed control at 200 ppm (Pyrenophora teres) | inhibition of growth at 20 ppm [2] | inhibition of growth at 20 ppm [3] | inhibition of growth at 20 ppm [4] | inhibition of growth at 20 ppm [5] | pest or weed control at 200 ppm [6] | inhibition of growth at 20 ppm [7]

CN(C)C(=O)c1cccc(C(C)(CNC(=O)c2cc(-c3ccc(F)cc3F)on2)c2cnn(C)c2)n1 (stereo not drawn) [Compound P-44, 5-(2,4-difluorophenyl)-N-[2-[6-(dimethylcarbamoyl)-2-pyridyl]-2-(1-methylpyrazol-4-yl)propyl]isoxazole-3-carboxamide]
≥ 80%: pest or weed control at 200 ppm (Alternaria solani) | pest or weed control at 200 ppm (Pyrenophora teres) | pest or weed control at 200 ppm [6]

Cn1cc(C(C)(CNC(=O)c2cc(-c3ccc(F)cc3F)on2)c2ccnc(Cl)n2)cn1 (stereo not drawn) [Compound P-64, N-[2-(2-chloropyrimidin-4-yl)-2-(1-methylpyrazol-4-yl)propyl]-5-(2,4-difluorophenyl) isoxazole-3-carboxamide]
≥ 80%: pest or weed control at 200 ppm (Alternaria solani) | pest or weed control at 200 ppm (Pyrenophora teres) | inhibition of growth at 20 ppm [2] | inhibition of growth at 20 ppm [3] | inhibition of growth at 20 ppm [4] | inhibition of growth at 20 ppm [5] | pest or weed control at 200 ppm [1] | pest or weed control at 200 ppm [6]

Cn1cc(C(C)(CNC(=O)c2cc(-c3ccc(F)cc3F)no2)c2cccc(Cl)n2)cn1 (stereo not drawn) [Compound P-4, N-[2-(6-chloro-2-pyridyl)-2-(1-methylpyrazol-4-yl)propyl]-3-(2,4-difluorophenyl)isoxazole-5-carboxamide]
≥ 80%: pest or weed control at 200 ppm (Alternaria solani) | inhibition of growth at 20 ppm [4] | pest or weed control at 200 ppm [1]

CCCCc1nnc(C(=O)NCC(C)(c2cnn(C)c2)c2cccc(Cl)n2)s1 (stereo not drawn) [Compound P-108, 5-butyl-N-[2-(6-chloro-2-pyridyl)-2-(1-methylpyrazol-4-yl)propyl]-1,3,4-thiadiazole-2-carboxamide]
≥ 80%: inhibition of growth at 20 ppm (Fusarium culmorum) | inhibition of growth at 20 ppm [2] | inhibition of growth at 20 ppm [3] | inhibition of growth at 20 ppm [4] | inhibition of growth at 20 ppm [5] | inhibition of growth at 20 ppm [7]

CC(C)C(CNC(=O)c1cc(-c2ccc(F)cc2F)on1)(c1cnn(C)c1)c1cccc(Cl)n1 (stereo not drawn) [Compound P-32, N-[2-(6-chloro-2-pyridyl)-3-methyl-2-(1-methylpyrazol-4-yl)butyl]-5-(2,4-difluorophenyl) isoxazole-3-carboxamide]
≥ 80%: pest or weed control at 200 ppm (Alternaria solani) | pest or weed control at 200 ppm (Pyrenophora teres) | inhibition of growth at 20 ppm [2] | inhibition of growth at 20 ppm [3] | inhibition of growth at 20 ppm [5] | pest or weed control at 200 ppm [6]

CO/N=C(/C)c1ccc(C(C)(CNC(=O)c2cc(-c3ccc(F)cc3F)on2)c2cnn(C)c2)nc1 (stereo not drawn) [Compound P-61, 5-(2,4-difluorophenyl)-N-[2-[5-[(Z)-N-methoxy-C-methyl-carbonimidoyl]-2-pyridyl]-2-(1-methylpyrazol-4-yl)propyl]isoxazole-3-carboxamide]
≥ 80%: pest or weed control at 200 ppm (Alternaria solani) | pest or weed control at 200 ppm (Pyrenophora teres) | inhibition of growth at 20 ppm [2] | inhibition of growth at 20 ppm [4] | inhibition of growth at 20 ppm [5] | pest or weed control at 200 ppm [6] | inhibition of growth at 20 ppm [7]

Cn1cc(C(C)(CNC(=O)c2cc(-c3ccc(F)cc3F)on2)c2cncc(Cl)n2)cn1 (stereo not drawn) [Compound P-21, N-[2-(6-chloropyrazin-2-yl)-2-(1-methylpyrazol-4-yl)propyl]-5-(2,4-difluorophenyl) isoxazole-3-carboxamide]
≥ 80%: pest or weed control at 200 ppm (Pyrenophora teres) | inhibition of growth at 20 ppm [2] | inhibition of growth at 20 ppm [3] | pest or weed control at 200 ppm [1]

Cn1cc(C(C)(CNC(=O)c2cc(-c3ccc(F)cc3F)on2)c2ccncn2)cn1 (stereo not drawn) [Compound P-23, 5-(2,4-difluorophenyl)-N-[2-(1-methylpyrazol-4-yl)-2-pyrimidin-4-yl-propyl]isoxazole-3-carboxamide]
≥ 80%: pest or weed control at 200 ppm (Alternaria solani) | pest or weed control at 200 ppm (Pyrenophora teres)
